Experimental data: patent US20100120690A1, “Polypeptides Having Antimicrobial Activity and Polynucleotides Encoding Same” (Novozymes Adenium Biotech A/S, priority 2005, published 2010)

Legend:
B. subtilis = assay: Minimal Effective Concentration (MEC) assay; assay type: cell-based, Bacillus subtilis
Method: (§1) Three antimicrobial polypeptides, which are variants of SEQ ID NO: 1, were tested for antimicrobial activity. A Minimal Effective Concentration assay (MEC, expressed as micrograms/mL) against different microorganisms was performed using the three plectasin mutants, Y40YR, N17R and Y25R following the protocol described in the book of Methods in Molecular Biology, Vol. 78, Antibacterial peptide protocol William M. Shafer, Human Press.

[1] = tested on: Staphylococcus aureus, ATCC 29737; assay: MIC, NCCLS/CLSI guidelines (Example 5), strain C; assay type: cell-based; conditions: average of two independent experiments
Summary of the method: (§2)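 Relative MIC category versus wild-type plectasin (0 >100%, 1 80-100%, 2 50-80%, 3 <50%), mean of two experiments. Determined per CLSI broth guidelines with expressed, purified peptides.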

M. luteus [2] = assay: Minimal Effective Concentration (MEC) assay; assay type: cell-based, Micrococcus luteus
Method: as §1

M. luteus [3] = assay: Minimal Inhibitory Concentration, NCCLS guidelines (Example 4); assay type: cell-based, Micrococcus luteus; conditions: purified peptide
Method: The Minimal Inhibitory Concentration (MIC, micrograms/mL) was determined to test for their antimicrobial activity following the NCCLS guidelines (Clinical and Laboratory Standards Institute; formerly known as National Committee for Clinical and Laboratory Standards).

[4] = tested on: Staphylococcus aureus, MRSA ST80 (2003); assay: MIC, NCCLS/CLSI guidelines (Example 5), strain E; assay type: cell-based; conditions: average of two independent experiments
Summary of the method: (§3)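 Expressed, purified plectasin wild-type and variant peptides were tested for minimal inhibitory concentration under NCCLS/CLSI guidelines. Values are the mean of two independent experiments, scored relative to wild-type plectasin MIC: 0 >100%, 1 80-100%, 2 50-80%, 3 <50%.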

Staphylococcus carnosus = assay: TAPS (Trans Acting Peptide System) assay, radial diffusion read-out; assay type: cell-based; parameters: key: classified as 4>3>2>1; whereas 4 is better than 1; classified as 4>3>2>1; classified as 4>3>2>1; wildtype activity corresponds to 1; conditions: peptide expressed in E. coli
Summary of the method: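 Plectasin variants expressed in E. coli origami under 0.1% arabinose induction, released by hot acid hydrolysis (pH ~2.3, 80° C overnight). Hydrolysate tested by radial diffusion in agarose seeded with S. carnosus. Clearing-zone diameter scored 1–4, wildtype set at 1.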

[5] = tested on: Staphylococcus aureus, ATCC 29213; assay: MIC, NCCLS/CLSI guidelines (Example 5), strain A; assay type: cell-based; conditions: average of two independent experiments
Summary of the method: as §2

[6] = tested on: Staphylococcus aureus, MRSA ST5 (2001); assay: MIC, NCCLS/CLSI guidelines (Example 5), strain D; assay type: cell-based; conditions: average of two independent experiments
Summary of the method: as §3

GFGCNGPWDEDDMQCHNHCKSIKGYKGGYCAKGGFVCKCY (listed as Pseudoplectania nigrella) [wildtype, wildtype plectasin, parent antimicrobial polypeptide, reference compound]
MEC against B. subtilis (B. subtilis): 0.09 micrograms/mL
MIC, strain C [1]: (4 μg/mL)
Relative MIC, strain C ([1]; relative to wildtype Plectasin): 1 (80-100% of Plectasin wildtype MIC)
MEC against M. luteus (M. luteus [2]): 1.89 micrograms/mL
MIC against M. luteus (M. luteus [3]): 32 micrograms/mL
MIC, strain E [4]: (22 μg/mL)
Relative MIC, strain E ([4]; relative to wildtype Plectasin): 1 (80-100% of Plectasin wildtype MIC)
Activity (antimicrobial activity, clearing zone size) (Staphylococcus carnosus): 1
MIC, strain A [5]: (8 μg/mL)
Relative MIC, strain A ([5]; relative to wildtype Plectasin): 1 (80-100% of Plectasin wildtype MIC)
MIC, strain D [6]: (15 μg/mL)
Relative MIC, strain D ([6]; relative to wildtype Plectasin): 1 (80-100% of Plectasin wildtype MIC)
